Data as given in US20180360953A1 (priority 2015, published 2018).
“Also recorded” adds a separate entry of the source. Where two headings read alike, the source gives them in different places.

Columns and labels:
spleen cells [1] = type: cell-based, mice; settings: 100 μM
[2] = system: Spleen cells of naïve C57BL/6 mice; type: cell-based
spleen cells [3] = type: cell-based, mice; settings: spleen cells 24 hrs; Roflumilast 6.5 μM, Sivelestat 46 μM, Sulfasalazine 100 uM, Aspirin 100 μM
Procedure: In this example, the signaling induced by neutrophil inhibitors were examined to provide insight into mechanisms used to promote immunoglobulin class switching and production of IgG and/or IgA antibodies. In these experiments, the spleen cells of nice mice were cultured 24 hrs without or with neutrophil inhibitor (roflumilast (Phosphodiesterase-4 inhibitor), sivelestat (Neutrophil elastase inhibitor), sulfasalazine (Neutrophil NET inhibitor), or aspirin (COX inhibitor)). Gene expression was analyzed by qRT-PCR for BAFF, AID, TGFb, and IL-10. Mice were divided into 5 groups: (1) Control (Media) (2) Roflumilast (6.5 μM) (3) Sivelestat (46 μM) (4) Sulfasalazine (100 uM) and (5) Aspirin (100 μM).

spleen cells [4] = type: cell-based, mice
[5] = system: neutrophils and mast cells; settings: cited from earlier work
PA-specific Ab responses [6] = system: PA-specific Ab responses; design: species or system mice; settings: mouse, in vivo
spleen cells [7] = type: cell-based, mice; settings: 24 hrs, 48 μM
spleen cells [8] = type: cell-based, mice; settings: 5 days; for IgG and IgA secreted in culture supernatants of spleen cells / IgM secreted in culture supernatants of spleen cells: increasing doses
Procedure: (§1) Single cell suspensions of spleen cells, mesenteric lymph nodes were resuspended (2×10^6 cells/ml) in RPMI 1640 supplemented with L-glutamine, HEPES, penicillin, streptomycin and 10% heat-inactivated fetal calf serum. Cells were cultured for 1, 5, or 6 days at 37° C. and 5% CO2 in the presence of various doses of the neutrophil elastase inhibitor Sivelestat (ONO-5046, C20H22N2O7S) or Alvelestat (AZD9668, C25H22F3N5O4S) (Selleckchem, Houston, Tex.). In selected experiments, neutrophil elastase inhibitors were added to cells cultured in the presence of Salmonella typhimurium LPS (0.05 μg/ml, Sigma, Saint Louis, Mo.).
(§2) […] described by ELISA, using goat anti-murine IgM, IgG, and IgA antibodies (Southern Biotech, Birmingham, Ala.) and extrapolation against standards.

[9] = system: F1-V-specific Ab responses; design: species or system mice; settings: mouse, in vivo
[10] = system: mucosal homing receptors CCR9 and a4b7; type: cell-based; settings: spleen and mesenteric lymph node cells of naïve mice, 48 hours, Alvelestat 50 or 200 mM
Procedure: Spleen (A) and mesenteric lymph node (B) cells of naïve mice were cultures for 48 hours in the absence or in the presence of the NEI Alvelestat ([…]). The expression of mucosal homing receptors CCR9 and a4b7 by B lymphocytes, and T lymphocytes was analyzed by flow cytometry.

PA-specific Ab responses [11] = system: PA-specific Ab responses; design: species or system mice; settings: mouse, in vivo; remark: listed apart in the source
[12] = system: Bacillus anthracis lethal toxin (LeTx); type: in vivo, mice; settings: Day 21
spleen cells [13] = type: cell-based, mice; remark: listed apart in the source
[14] = system: OVA-specific Ab responses; design: species or system mice; settings: mouse, in vivo
[15] = system: mesenteric lymph node cells; type: cell-based, mice; settings: 5-days culture
Procedure: as §1, §2

[16] = system: OVA-specific Ab responses; design: species or system mice; settings: mouse, in vivo, ip
CD4+ T helper cells = system: CD4+ T helper cells; design: species or system mice; settings: mouse, in vivo
[17] = system: mucosal homing receptors CCR9 and a4b7; design: species or system mice; settings: mouse, ip

In the case of `CC(=O)Oc1ccccc1C(=O)O` [Acetyl-salicylic acid (ASA), acetylsalicylic acid], the “IgA secretion by spleen cells (frequency of IgA secreting cells, ELISPOT)” value (from here on “IgA secretion by spleen cells”) (spleen cells [1]) is reported as “enhanced”, the “Relative stimulation of IgA secretion” value [2] is reported as “++” and the “Dose effect (Relative stimulation of IgA)” value ([2]; 10 uM) is reported as “uM (++)”. The “Dose effect (Relative stimulation of IgA)” value ([2]; 100 uM) was “uM (++)”, the “Dose effect (Relative stimulation of IgA)” value ([2]; 500 uM) was “uM (+)” and the “genes involved in immunoglobulin class switching (BAFF, AID, TGFb, and IL-10)” value (from here on “genes involved”) (spleen cells [3]) was “differentially regulate”. For the same compound, the “IgG and IgA production (immunofluorescence on cytospins)” value (spleen cells [4]) was “enhanced”.
In the case of `O=C1CCC(N2C(=O)c3ccccc3C2=O)C(=O)N1` (stereo not drawn) [thalidomide], the “ET formation in neutrophils and mast cells” value [5] is listed as “significantly inhibit”.
In the case of `O=C(Nc1c(Cl)cncc1Cl)c1ccc(OC(F)F)c(OCC2CC2)c1` [Roflumilast], the “Relative stimulation of IgA secretion” value [2] is reported as “+”, the “Dose effect (Relative stimulation of IgA)” value ([2]; 0.062 uM) is reported as “uM (−)” and the “Dose effect (Relative stimulation of IgA)” value ([2]; 0.62 uM) is reported as “uM (−)”. For the same compound, the “Dose effect (Relative stimulation of IgA)” value ([2]; 6.2 uM) was “uM (+)” and the “genes involved” value (spleen cells [3]) was “differentially regulate”.
For `CC(C)(C)C(=O)Oc1ccc(S(=O)(=O)Nc2ccccc2C(=O)NCC(=O)O)cc1` [Sivelestat, sivelestat], the “PA-specific salivary IgA response” value (PA-specific Ab responses [6]) was “enhances”, the “PA-specific serum IgA response” value (PA-specific Ab responses [6]) was “enhances” and the “PA-specific serum IgG1 response” value (PA-specific Ab responses [6]) was “enhances”. The “PA-specific serum IgG2c response” value (PA-specific Ab responses [6]) was “did not affect”, the “IgA secretion by spleen cells” value (spleen cells [1]) was “enhanced” and the “Relative stimulation of IgA secretion” value [2] was “++”. For the same compound, the “Dose effect (Relative stimulation of IgA)” value ([2]; 4.6 uM) was “uM (+)”, the “Dose effect (Relative stimulation of IgA)” value ([2]; 46 uM) was “uM (++)” and the “Dose effect (Relative stimulation of IgA)” value ([2]; 230 uM) was “uM (++)”. The “AID mRNA synthesis” value (spleen cells [7]) was “stimulated”, the “secretion of IgG and IgA by splenocytes cultured in the presence of LPS” value (spleen cells [8]; LPS 0.05 μg/ml) was “increased” and the “IgG and IgA secreted in culture supernatants of spleen cells” value (spleen cells [8]) was “dose-dependent increase”. The “IgM secreted in culture supernatants of spleen cells” value (spleen cells [8]) was “reduced”, the “genes involved” value (spleen cells [3]) was “differentially regulate” and the “IgG and IgA production (immunofluorescence on cytospins)” value (spleen cells [4]) was “larger increases”. For the same compound, the “IgA responses by a sublingual vaccine” value [9] was “promotes”.
In the case of `Cc1c(-c2ccnn2C)cc(C(=O)NCc2ccc(S(C)(=O)=O)cn2)c(=O)n1-c1cccc(C(F)(F)F)c1` [Alvelestat, alvelestat], the “expression of gut homing receptors (CCR9 and a4b7) by B and T cells in vitro” value [10] is reported as “promotes expression”, the “High affinity PA-specific IgG1 and IgA Ab responses” value (PA-specific Ab responses [11]) is reported as “high affinity antibodies; also recorded: promotes high affinity Abs” and the “titers of PA-specific IgG1 and IgA responses” value (PA-specific Ab responses [11]) is reported as “enhanced”. The “serum anti-PA neutralizing antibody titers” value ([12]; sublingual EdTx and NEI, listed as NEI) was “significantly increased; also recorded: enhanced neutralizing activity”, the “serum anti-PA neutralizing antibodies” value ([12]; sublingual antigen plus NEI) was “low and comparable levels” and the “frequency of CD4+ T cells” value (spleen cells [13]) was “increased”. The “OVA-specific serum IgE response” value [14] was “no IgE response was detected”, the “OVA-specific serum IgE responses induced by EdTx” value [14] was “significantly reduced; also recorded: suppresses” and the “OVA-specific serum IgG1 responses in the absence of EdTx” value [14] was “increased”. The “OVA-specific serum IgG1 responses induced by EdTx” value [14] was “increased the magnitude; also recorded: enhances”, the “OVA-specific serum IgG2a/c, or IgG3 in the absence of EdTx” value [14] was “no evidence that the NEI enhanced” and the “OVA-specific serum IgG2b responses induced by EdTx as adjuvant” value [14] was “significantly increased; also recorded: enhances”. The “antigen-specific IgA in gut (fecal extracts)” value [14] was “did not stimulate”, the “antigen-specific IgA responses in vaginal washes” value [14] was “only non-significant levels” and the “fecal IgA responses” value [14] was “resulted in induction of fecal IgA responses”. For the same compound, the “vaginal IgG responses induced by EdTx as adjuvant” value [14] was “enhance”, the “AID mRNA synthesis” value (spleen cells [7]) was “stimulated” and the “IgA production by spleen cells cultured in the presence of LPS” value (spleen cells [8]; LPS 0.05 μg/ml) was “significant increase”. The “IgG and IgA secreted in culture supernatants of spleen cells” value (spleen cells [8]) was “increased”, the “IgM secreted in culture supernatants of spleen cells” value (spleen cells [8]) was “reduced” and the “IgG and IgA in culture supernatants of mesenteric lymph node cells” value [15] was “higher levels”. For the same compound, the “kinetic and magnitude of OVA-specific serum IgG” value [16] was “enhances”, the “mucosal IgA responses in the gut (OVA-specific, fecal extracts)” value [16] was “promotes” and the “all CD4+ T helper cytokine responses, including Th1, Th2, Th17 and Tfh” value (CD4+ T helper cells) was “significantly increased”. The “frequencies of IL-4+ CD4+ cells” value (CD4+ T helper cells) was “lower frequencies”, the “frequencies of IL-10+ CD4+ T cells and IL-17+ CD4+ T cells” value (CD4+ T helper cells) was “higher frequencies” and the “frequencies of Th1 cells (IFNγ+ CD4+ T cells and TNFα+ CD4+ T cells)” value (CD4+ T helper cells) was “same frequencies”. For the same compound, the “frequencies of Th2 cells producing IL-5” value (CD4+ T helper cells) was “similar”, the “frequencies of antigen-specific IL-21+ CD4 T cells” value (CD4+ T helper cells) was “same frequencies” and the “expression of gut homing receptors (CCR9 and a4b7) by B and T cells in vivo” value [17] was “promotes expression”.
In the case of `O=C(O)c1cc(/N=N/c2ccc(S(=O)(=O)Nc3ccccn3)cc2)ccc1O` [Sulfasalazine, sulfasalazine], the “IgA secretion by spleen cells” value (spleen cells [1]) is reported as “enhanced”, the “Relative stimulation of IgA secretion” value [2] is reported as “+++” and the “Dose effect (Relative stimulation of IgA)” value ([2]; 10 uM) is reported as “uM (++)”. The “Dose effect (Relative stimulation of IgA)” value ([2]; 100 uM) was “uM (+++)”, the “Dose effect (Relative stimulation of IgA)” value ([2]; 1000 uM) was “uM (+)” and the “ET formation in neutrophils and mast cells” value [5] was “significantly inhibit”. The “genes involved” value (spleen cells [3]) was “differentially regulate”.
